{"source": "patent US20240383904A1", "about": "“HETEROCYCLIC COMPOUNDS” (Hoffmann-La Roche Inc., priority 2021, published 2024)", "molecular_target": "T1, MAGL (Homo sapiens, UniProt Q99685)", "T1 sequence (Q99685 1-303)": "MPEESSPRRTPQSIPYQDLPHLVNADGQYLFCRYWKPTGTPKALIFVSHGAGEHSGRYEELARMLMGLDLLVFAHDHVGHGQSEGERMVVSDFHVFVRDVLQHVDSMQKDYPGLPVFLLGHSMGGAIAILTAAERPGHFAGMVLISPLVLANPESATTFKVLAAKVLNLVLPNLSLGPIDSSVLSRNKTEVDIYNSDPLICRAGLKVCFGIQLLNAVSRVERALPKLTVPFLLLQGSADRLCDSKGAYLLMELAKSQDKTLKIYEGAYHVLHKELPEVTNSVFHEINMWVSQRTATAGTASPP", "experiment": "2-AG assay: MAGL inhibitory activity by hydrolysis of 2-arachidonoylglycerol to arachidonic acid, followed by mass spectrometry", "type": "biochemical", "settings": "15 min preincubation, 30 min reaction at RT, 8 μM 2-arachidonoylglycerol", "data": [{"molecule": "CS(=O)(=O)c1ccc(CN2CC3(C2)CN(C(=O)N2CC4(COC(=O)N4)C2)C3)cc1", "note": "[Example 164, 2-[6-(4-mesylbenzyl)-2,6-diazaspiro[3.3]heptane-2-carbonyl]-7-oxa-2,5-diazaspiro[3.4]octan-6-one]", "values": [{"measurement": "IC50", "value": 0.0525, "unit": "µM"}]}, {"molecule": "O=C1CCC2(CN(C(=O)N3CC4(CC(Cc5cnn(CC(F)(F)F)c5)C4)C3)C2)N1", "note": "[Example 248, 2-[6-[[1-(2,2,2-trifluoroethyl)pyrazol-4-yl]methyl]-2-azaspiro[3.3]heptane-2-carbonyl]-2,5-diazaspiro[3.4]octan-6-one]", "values": [{"measurement": "IC50", "value": 0.0328, "unit": "µM"}]}, {"molecule": "CP(C)(=O)c1cc(F)cc(CC2CC3(C2)CN(C(=O)N2CC4(CCC(=O)N4)C2)C3)c1", "note": "[Example 339, 2-[6-(3-dimethylphosphoryl-5-fluoro-benzyl)-2-azaspiro[3.3]heptane-2-carbonyl]-2,5-diazaspiro[3.4]octan-6-one]", "values": [{"measurement": "IC50", "value": 0.215, "unit": "µM"}]}, {"molecule": "O=C1CCC2(CN(C(=O)N3CC4(CC(Cn5nccc5C(F)(F)F)C4)C3)C2)N1", "note": "[Example 168, 2-[6-[[5-(trifluoromethyl)pyrazol-1-yl]methyl]-2-azaspiro[3.3]heptane-2-carbonyl]-2,5-diazaspiro[3.4]octan-6-one]", "values": [{"measurement": "IC50", "value": 0.00245, "unit": "µM"}]}, {"molecule": "N#Cc1cc(CC2CC3(C2)CN(C(=O)N2CC4(CCCC(=O)N4)C2)C3)ccc1C(F)(F)F", "note": "[Example 271, 5-[[2-(6-oxo-2,5-diazaspiro[3.5]nonane-2-carbonyl)-2-azaspiro[3.3]heptan-6-yl]methyl]-2-(trifluoromethyl)benzoni-trile]", "values": [{"measurement": "IC50", "value": 0.0316, "unit": "µM"}]}, {"molecule": "O=C1COCC2(CN(C(=O)N3CC4(CC(Cc5cccc(S(=O)(=O)C(F)(F)F)c5)C4)C3)C2)N1", "note": "[Example 182, 2-[6-[[3-(trifluoromethylsulfonyl)phenyl]methyl]-2-azaspiro[3.3]heptane-2-carbonyl]-8-oxa-2,5-diazaspiro[3.5]nonan-6-one]", "values": [{"measurement": "IC50", "value": 0.485, "unit": "µM"}]}, {"molecule": "O=C1CCC2(CN(C(=O)N3CC4(CCC(Cc5cnc(C(F)(F)F)cn5)CC4)C3)C2)N1", "note": "[Example 102, 2-[7-[[5-(trifluoromethyl)pyrazin-2-yl]methyl]-2-azaspiro[3.5]nonane-2-carbonyl]-2,5-diazaspiro[3.4]octan-6-one]", "values": [{"measurement": "IC50", "value": 0.0108, "unit": "µM"}]}, {"molecule": "CS(=O)(=O)c1cc(C(F)(F)F)ccc1CC1CC2(C1)CN(C(=O)N1CC3(COCC(=O)N3)C1)C2", "note": "[Example 184, 2-[6-[[2-methylsulfonyl-4-(trifluoromethyl)phenyl]methyl]-2-azaspiro[3.3]heptane-2-carbonyl]-8-oxa-2,5-diazaspiro[3.5]nonan-6-one]", "values": [{"measurement": "IC50", "value": 0.21, "unit": "µM"}]}, {"molecule": "O=C1CCC2(CN(C(=O)N3CC4(C3)CN(S(=O)(=O)c3ccccc3OC(F)(F)F)C4)C2)N1", "note": "[Example 200, 2-[2-[2-(trifluoromethoxy)phenyl]sulfonyl-2,6-diazaspiro[3.3]heptane-6-carbonyl]-2,5-diazaspiro[3.4]octan-6-one]", "values": [{"measurement": "IC50", "value": 0.116, "unit": "µM"}]}, {"molecule": "CS(=O)(=O)c1cc(CC2CC3(C2)CN(C(=O)N2CC4(COCC(=O)N4)C2)C3)cc(C(F)(F)F)c1", "note": "[Example 238, 2-[6-[[3-methylsulfonyl-5-(trifluoromethyl)phenyl]methyl]-2-azaspiro[3.3]heptane-2-carbonyl]-8-oxa-2,5-diazaspiro[3.5]nonan-6-one]", "values": [{"measurement": "IC50", "value": 0.0165, "unit": "µM"}]}, {"molecule": "Cn1ncc(CC2CC3(C2)CN(C(=O)N2CC4(COC(=O)N4)C2)C3)c1C(F)(F)F", "note": "[Example 352, 2-[6-[[1-methyl-5-(trifluoromethyl)pyrazol-4-yl]methyl]-2-azaspiro[3.3]heptane-2-carbonyl]-7-oxa-2,5-diazaspiro[3.4]octan-6-one]", "values": [{"measurement": "IC50", "value": 0.00015, "unit": "µM"}]}, {"molecule": "CS(=O)(=O)c1ccc(CN2CCC3(CC2)CN(C(=O)N2CC4(CCC(=O)N4)C2)C3)cc1", "note": "[Example 160, 2-[7-(4-mesylbenzyl)-2,7-diazaspiro[3.5]nonane-2-carbonyl]-2,5-diazaspiro[3.4]octan-6-one]", "values": [{"measurement": "IC50", "value": 0.279, "unit": "µM"}]}, {"molecule": "O=C1CCC2(CN(C(=O)N3CC4(CCN(Cc5ccc(S(=O)(=O)C(F)(F)F)cc5)CC4)C3)C2)N1", "note": "[Example 82, 2-[7-(4-triflylbenzyl)-2,7-diazaspiro[3.5]nonane-2-carbonyl]-2,5-diazaspiro[3.4]octan-6-one]", "values": [{"measurement": "IC50", "value": 0.00558, "unit": "µM"}]}, {"molecule": "O=C1NC2(CO1)CN(C(=O)N1CC3(CN(Cc4ccc(S(=O)(=O)C(F)(F)F)cc4)C3)C1)C2", "note": "[Example 85, 2-[6-(4-triflylbenzyl)-2,6-diazaspiro[3.3]heptane-2-carbonyl]-7-oxa-2,5-diazaspiro[3.4]octan-6-one]", "values": [{"measurement": "IC50", "value": 0.00094, "unit": "µM"}]}, {"molecule": "Cn1cc(OC2CC3(C2)CN(C(=O)N2CC4(CCC(=O)N4)C2)C3)cn1", "note": "[Example 344, 2-[6-(1-methylpyrazol-4-yl)oxy-2-azaspiro[3.3]heptane-2-carbonyl]-2,5-diazaspiro[3.4]octan-6-one]", "values": [{"measurement": "IC50", "value": 2.45, "unit": "µM"}]}, {"molecule": "O=C1CCC2(CN(C(=O)N3CC4(CCC(Cc5ccc(C(F)(F)F)cn5)CC4)C3)C2)N1", "note": "[Example 60, 2-[7-[[5-(trifluoromethyl)-2-pyridyl]methyl]-2-azaspiro[3.5]nonane-2-carbonyl]-2,5-diazaspiro[3.4]octan-6-one]", "values": [{"measurement": "IC50", "value": 0.00074, "unit": "µM"}]}, {"molecule": "O=C1NC2(CO1)CN(C(=O)N1CC3(CC(Cc4ccc(C(F)(F)F)nc4)C3)C1)C2", "note": "[Example 14, 2-[6-[[6-(trifluoromethyl)-3-pyridyl]methyl]-2-azaspiro[3.3]heptane-2-carbonyl]-7-oxa-2,5-diazaspiro[3.4]octan-6-one]", "values": [{"measurement": "IC50", "value": 0.00084, "unit": "µM"}]}, {"molecule": "O=C1CCC2(CN(C(=O)N3CC4(CCN(Cc5cccc(S(=O)(=O)C(F)(F)F)c5)C4)C3)C2)N1", "note": "[Example 256, 2-[7-[[3-(trifluoromethylsulfonyl)phenyl]methyl]-2,7-diazaspiro[3.4]octane-2-carbonyl]-2,5-diazaspiro[3.4]octan-6-one]", "values": [{"measurement": "IC50", "value": 0.0269, "unit": "µM"}]}, {"molecule": "CS(=O)(=O)c1cc(F)ccc1CC1CC2(C1)CN(C(=O)N1CC3(COCC(=O)N3)C1)C2", "note": "[Example 147, 2-[6-(4-fluoro-2-mesyl-benzyl)-2-azaspiro[3.3]heptane-2-carbonyl]-8-oxa-2,5-diazaspiro[3.5]nonan-6-one]", "values": [{"measurement": "IC50", "value": 0.0232, "unit": "µM"}]}, {"molecule": "O=C1NC2(CO1)CN(C(=O)N1CC3(CCN(S(=O)(=O)c4ccc(C(F)(F)F)cc4F)CC3)C1)C2", "note": "[Example 189, 2-[7-[2-fluoro-4-(trifluoromethyl)phenyl]sulfonyl-2,7-diazaspiro[3.5]nonane-2-carbonyl]-7-oxa-2,5-diazaspiro[3.4]octan-6-one]", "values": [{"measurement": "IC50", "value": 0.00172, "unit": "µM"}]}, {"molecule": "O=C1COCC2(CN(C(=O)N3CC4(CC(Cc5ccc(S(=O)(=O)C(F)(F)F)cc5)C4)C3)C2)N1", "note": "[Example 296, 2-[6-[[4-(trifluoromethylsulfonyl)phenyl]methyl]-2-azaspiro[3.3]heptane-2-carbonyl]-8-oxa-2,5-diazaspiro[3.5]nonan-6-one]", "values": [{"measurement": "IC50", "value": 0.00015, "unit": "µM"}]}, {"molecule": "O=C1NC2(CO1)CN(C(=O)N1CC3(CC(NCC4(C(F)(F)F)CC4)C3)C1)C2", "note": "[Example 119, 2-[6-[[1-(trifluoromethyl)cyclopro-pyl]methylamino]-2-azaspiro[3.3]heptane-2-carbonyl]-7-oxa-2,5-diazaspiro[3.4]octan-6-one]", "values": [{"measurement": "IC50", "value": 0.00293, "unit": "µM"}]}, {"molecule": "O=C1NC2(CO1)CN(C(=O)N1CC3(CCC(Cc4ccc(C(F)(F)F)nc4)C3)C1)C2", "note": "(stereo not shown) [Example 110, 2-[6-[[6-(trifluoromethyl)-3-pyridyl]methyl]-2-azaspiro[3.4]octane-2-carbonyl]-7-oxa-2,5-diazaspiro[3.4]octan-6-one]", "values": [{"measurement": "IC50", "value": 0.00024, "unit": "µM"}]}, {"molecule": "O=C1NC2(CO1)CN(C(=O)N1CC3(CCC(Oc4cnc(C(F)(F)F)cn4)C3)C1)C2", "note": "(single isomer, unassigned) [Example 104]", "values": [{"measurement": "IC50", "value": 0.00285, "unit": "µM"}]}, {"molecule": "O=C1CCC2(CN(C(=O)N3CC4(CC(Oc5ccc(C(F)(F)F)nn5)C4)C3)C2)N1", "note": "[Example 75, 2-[6-[6-(trifluoromethyl)pyridazin-3-yl]oxy-2-azaspiro[3.3]heptane-2-carbonyl]-2,5-diazaspiro[3.4]octan-6-one]", "values": [{"measurement": "IC50", "value": 0.271, "unit": "µM"}]}, {"molecule": "O=C1CCC2(CN(C(=O)N3CC4(CCC(NS(=O)(=O)c5cccc(OC(F)(F)F)c5)CC4)C3)C2)N1", "note": "[Example 116, N-[2-(6-keto-2,5-diazaspiro[3.4]octane-2-carbonyl)-2-azaspiro[3.5]nonan-7-yl]-3-(trifluoromethoxy)benzene-sulfonamide]", "values": [{"measurement": "IC50", "value": 0.00173, "unit": "µM"}]}, {"molecule": "NC(=O)c1ccc(CC2CC3(C2)CN(C(=O)N2CC4(COC(=O)N4)C2)C3)cc1OC(F)(F)F", "note": "[Example 244, 4-[[2-(6-oxo-7-oxa-2,5-diazaspiro[3.4]octane-2-carbonyl)-2-azaspiro[3.3]heptan-6-yl]methyl]-2-(trifluoromethoxy)benz-amide]", "values": [{"measurement": "IC50", "value": 0.00094, "unit": "µM"}]}, {"molecule": "O=C1CCC2(CN(C(=O)N3CC4(CCN(Cc5cnc(C(F)(F)F)cn5)C4)C3)C2)N1", "note": "[Example 155, 2-[7-[[5-(trifluoromethyl)pyrazin-2-yl]methyl]-2,7-diazaspiro[3.4]octane-2-carbonyl]-2,5-diazaspiro[3.4]octan-6-one]", "values": [{"measurement": "IC50", "value": 0.237, "unit": "µM"}]}, {"molecule": "CS(=N)(=O)c1cc(CC2CC3(C2)CN(C(=O)N2CC4(CCC(=O)N4)C2)C3)cc(C(F)(F)F)c1", "note": "(stereo not shown) [Example 255, 2-[6-[[3-(methylsulfonimidoyl)-5-(trifluoromethyl)phenyl]methyl]-2-azaspiro[3.3]heptane-2-carbonyl]-2,5-diazaspiro[3.4]octan-6-one]", "values": [{"measurement": "IC50", "value": 0.00419, "unit": "µM"}]}, {"molecule": "O=C1CCC2(CN(C(=O)N3CC4(CN(Cc5nc(C6CC6)ns5)C4)C3)C2)N1", "note": "[Example 340, 2-[6-[(3-cyclopropyl-1,2,4-thiadiazol-5-yl)methyl]-2,6-diazaspiro[3.4]heptane-2-carbonyl]-2,5-diazaspiro[3.4]octan-6-one]", "values": [{"measurement": "IC50", "value": 0.428, "unit": "µM"}]}, {"molecule": "O=C1CCC2(CN(C(=O)N3CC4(CN(Cc5nnc(C(F)(F)F)s5)C4)C3)C2)N1", "note": "[Example 342, 2-[6-[[5-(trifluoromethyl)-1,3,4-thiadiazol-2-yl]methyl]-2,6-diazaspiro[3.3]heptane-2-carbonyl]-2,5-diazaspiro[3.4]octan-6-one]", "values": [{"measurement": "IC50", "value": 1.6, "unit": "µM"}]}]}
